Assay results published in patent US20240287065A1, “COMPOUND AS CDK KINASE INHIBITOR AND USE THEREOF” (TYK MEDICINES (ZHENGZHOU) , INC., priority 2021, published 2024).
Read-outs that look alike come from different tables or passages of the source.

Assays:
HCC1806 cells = assay: Cell proliferation inhibition assay (MTT, 7 days); type: cell-based; details: HCC1086 [sic], 7 days incubation
Description: (§1) MCF7, T47D, OVCAR3 and HCC1806 cells were inoculated in 96-well plates at 3000, 3000, 2500, and 2000 cells/well, respectively, and cultured overnight at 37° C., 5% C02 incubator.
(§2) 1. […] Then 2.5 μl of the stock solution was dissolved in 497.5 μl of DMSO-free medium, and then a 3-fold serial gradient dilution was performed with 0.1% DMSO medium for a total of 9 concentrations, and the concentrations of the compounds after dilution were as follows: • 10000 nM, 3333.33 nM, 1111.11 nM, 370.34 nM, 123.45 nM, 41.15 nM, 13.72 nM, 4.57 nM, and 1.52 nM. • b) After fully mixing, 20 μL of compound solutions were added into cell culture plates containing 80 μL of cells respectively, with 4 replicate wells for each concentration. • c) The cells were transferred to an incubator and incubated for 7 days, and exchanged with fresh culture medium containing the same concentration of compounds when incubated to day 4. 2. MTT assay • a) The cell culture plate was taken out and 10 μL of 5 mg/ml MTT was added to the hood. • b) The cell culture plate was put back into the incubator and continued to incubate for 3 hours. • c) The cell culture plate was taken out to remove the culture medium, and 100 μL of isopropanol (0.4 mMHCl, 0.4% NP40) was added to the plate, and the plate was shaken on a shaker at room temperature for 30 minutes and read at 570 nm. 3. Data analysis
(§3) The survival rate (% Cell Survival) was calculated using the following equation:
(§4) % Cell Survival=100%×(OD_Sample−OD_LCave)/(OD_HC−OD_LCave) • OD_HC: 0.1‰ cell readings of DMSO control • OD_Sample: cell readings of compound addition • OD_LC: readings of blank medium • Analyed by Prizm: Dose-response-Inhibition Log(inhibitor) vs response (three parameters for the best fit)
(§5) IC50 (nM) values were calculated by concentration-response curve fitting.

MCF7 cells = assay: Cell proliferation inhibition assay (MTT, 7 days); type: cell-based; details: 7 days incubation
Description: as §1, §2, §3, §4, §5

OVCAR3 cells = assay: Cell proliferation inhibition assay (MTT, 7 days); type: cell-based; details: 7 days incubation
Description: as §1, §2, §3, §4, §5

T47D cells = assay: Cell proliferation inhibition assay (MTT, 7 days); type: cell-based; details: 7 days incubation
Description: as §1, §2, §3, §4, §5

MCF-7-Palbo-R cells = assay: MCF-7-Palbo-R cell antiproliferative assay (BrdU ELISA); type: cell-based; details: for IC50: 72 hours, BrdU; for Bottom(%): bottom of inhibition curve; for Top(%): top of inhibition curve
Description: 1. Experimental Materials • MCF-7/palbo-R • EMEM medium (ATCC, 30-2003); DMEM/F12 medium (Gibco-1 1330-032) • Fetal bovine serum (cellmax-SA21 1.02) • DMSO (SIGMA, D2650) • BrdU ELISA cell proliferation assay kit (Roche, 11647229001) • ELISA (e.g. MD-SpectraMax ID5 or EnVision)
2. Experimental protocol • 1. Cell spreading • 1) Cells were counted, the concentration of cell suspension was adjusted • 2) The MCF7/Palbo-R cell suspension was seeded in 96-well plates at […] volume to make the number of cells per well is 4000-5000; • 3) Blank control group was added with 90 μl of culture medium; • 2. […] A 3-fold serial gradient dilution was performed with 0.1% DMSO medium for a total of 9 concentrations, and the concentrations of the compounds after dilution were as follows: • 10000 nM, 3333.33 nM, 1111.11 nM, 370.34 nM, 123.45 nM, 41.15 nM, 13.72 nM, 4.57 nM, and 1.52 nM. • b) After 72 hours of compound treatment. • 1) A 10 mM of Brdu stock solution was diluted with RPMI medium and added to a 96-well plate at 20 uL/well and shaken at 350 rpm for 10 minutes. • 2) The 96 well plate was placed back into the incubator for 1 or 2 hours. • 3) After the medium was removed from the 96-well plate, 200 ul/well of Fixation/Denaturation solution was added and incubated for 30 minutes at room temperature. • 4) The fixation solution was removed and 100 ul of peroxidase-coupled anti-Brdu antibody solution (antibody dilution prepared at 1:100 dilution) was added, • and incubated at 350 rpm for 1 hour at room temperature. • 6) The 96-well plate was washed three times with 300 ul/well of PBS. • 8) 100ul of peroxidase substrate solution was added and shaken at 350 rpm for about 10-20 minutes at room temperature, • until the DMSO-treated cell control wells turn a medium blue color. If a color is too dark, it will cause the absorbance value to out of the reading range. • 9) The reaction was terminated by the addition of 25 ul of 1 M sulfuric acid. Shake to ensure uniform color. • 10) The absorbance at 450 nm was recorded. • 3. Data analysis • The inhibition rate is calculated using the following equation:
IR (%)=(1−(RLU compound−RLU blank)/(RLU control−RLU blank))*100%.

OVCAR-3 cells = assay: OVCAR-3 xenograft tumor model; type: in vivo; details: BALB/c nude female mice
Description: OVCAR-3 cells were cultured in RPMI1640 culture medium containing 20% fetal bovine serum and 10 μg/mL Insalin. Cells in the exponential growth phase were collected, and the cells were resuspended in the mixed solution of PBS and Matrigel in a ratio of 1:1 to a suitable concentration for subcutaneous tumor inoculation in nude mice.
To establish a xenograft tumor model, 1×10^7 OVCAR-3 cells were suspended in 0.2 mL of a mixture of PBS and Matrigel (1:1) and injected subcutaneously into 6-8-week-old BALB/c nube female mice on the right back. Tumor growth was observed periodically, and the volume (volume=½[…](length×width 2)) was measured with a vernier caliper. When the tumors grew to an average volume of 100˜150 mm^3, the drug was administered to mice (27 days after inoculation) in random groups according to the tumor size and their body weights. […] Tumor volume and animal weight were measured twice a week and continued until the end of the experiment. Dosing day was defined as day 0. Measurement time points were day 0, day 3, day 7, day 10, day 14, day 17 and day 21. All mice were euthanized by cervical dislocation. At the end of the experiment, tumors were collected and weighed to calculate TGI values (see Table 5).

MV4-11 cells = assay: MV4-11 xenograft tumor model; type: in vivo; details: 20 mg/kg, oral tube feeding once a day for 15 days, NOD/SCID mice
Description: MV-4-11 cells were cultured in IMEM culture medium containing 10% fetal bovine serum. Cells in the exponential growth phase were collected, and the cells were resuspended in PBS to a suitable concentration for subcutaneous tumor inoculation in nude mice.
To establish a xenograft tumor model, 5×10^6 MV4-11 cells were suspended in 0.1 mL of a 1:1 mixture of PBS and Matrigel and injected subcutaneously into the right dorsal side of 6-8-week-old NOD/SCID mice. Tumor growth was observed periodically, and the volume (volume=½×(length×width^2)) was measured with a vernier caliper. When the tumors grew to an average volume of 100˜150 mm^3, the drug was administered to mice (12 days after inoculation) in random groups according to the tumor size and their body weights. […] Among them, the mice in the Vehicle, 10 mg/kg TY-3301, 10 mg/kg C3, and 20 mg/kg C3 groups were administered twice a day by oral tube feeding for 15 days, and the mice in the 20 mg/kg TY-3300 group were administered once a day by oral tube feeding for 15 days. Tumor volume and animal weight were measured twice a week and continued until the end of the experiment. Dosing day was defined as day 0. Measurement time points were day 0, day 3, day 7, day 10, day 14, and day 15. All mice were euthanized by cervical dislocation. At the end of the experiment, tumors were collected and weighed to calculate TGI values (see Table 6).

CDK2/CycE1 = CDK2/CycE1 (Homo sapiens, UniProt P24941); assay: Enzyme activity test; type: biochemical;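 note: values come from the source column headed CDK2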
Description: (§6) • 1. The test compounds and pabocinib were configured into a […] solution of DMSO; • 2. 20 nL of stock solution was transferred to a 384-well plate using Echo550. DMSO was used as a blank control.
(§7) • 1. according to the following table to prepare 1.3X enzyme solution containing enzyme, substrate and cofactor; • 2. 15 μL of 1.3X enzyme solution was added to each well and the mixture was incubated for 30 min at room temperature; • 3. 5 μL of ATP solution was added to initiate the reaction. The final volume of each well was 20 μL; • 4. After incubation for 150 min at room temperature, 75 μL of termination buffer solution was added to terminate the experiment; • 5. The samples were analyzed using EZ reader.
(§8) The % inhibition was calculated using the following equation
(§9) The one treated with DMSO is the positive control (PC)
(§10) The one without enzyme is the negative control (NC)
(§11) % Inhibition=100-100*((CRPC−CRsample)/(CRPC−CRNC))

CDK4/CycD3 = CDK4/CycD3 (Homo sapiens, UniProt P11802); assay: Enzyme activity test; type: biochemical;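 note: values come from the source column headed CDK4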
Sequence of CDK4/CycD3 (P11802 whole entry, species assumed): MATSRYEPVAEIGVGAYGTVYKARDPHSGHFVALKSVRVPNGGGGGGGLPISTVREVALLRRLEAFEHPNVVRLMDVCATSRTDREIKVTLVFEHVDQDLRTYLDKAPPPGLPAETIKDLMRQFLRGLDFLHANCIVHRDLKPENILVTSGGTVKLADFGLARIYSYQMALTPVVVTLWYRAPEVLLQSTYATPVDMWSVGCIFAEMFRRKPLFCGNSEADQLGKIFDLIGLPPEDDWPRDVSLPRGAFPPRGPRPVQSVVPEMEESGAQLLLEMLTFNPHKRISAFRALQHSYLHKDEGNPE
Sequence of CDK4/CycD3 (P30281 whole entry partner, species assumed): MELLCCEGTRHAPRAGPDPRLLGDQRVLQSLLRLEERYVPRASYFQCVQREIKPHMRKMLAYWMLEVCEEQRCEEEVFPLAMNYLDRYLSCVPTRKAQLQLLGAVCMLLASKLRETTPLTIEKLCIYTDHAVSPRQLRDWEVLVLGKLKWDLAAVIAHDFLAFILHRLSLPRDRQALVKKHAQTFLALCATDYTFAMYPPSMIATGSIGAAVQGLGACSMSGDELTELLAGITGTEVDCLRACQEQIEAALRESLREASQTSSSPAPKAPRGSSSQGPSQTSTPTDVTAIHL
Description: as §6, §7, §8, §9, §10, §11

CDK6/CycD1 = CDK6/CycD1 (Homo sapiens, UniProt Q00534); assay: Enzyme activity test; type: biochemical;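 note: values come from the source column headed CDK6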
Sequence of CDK6/CycD1 (Q00534 whole entry, species assumed): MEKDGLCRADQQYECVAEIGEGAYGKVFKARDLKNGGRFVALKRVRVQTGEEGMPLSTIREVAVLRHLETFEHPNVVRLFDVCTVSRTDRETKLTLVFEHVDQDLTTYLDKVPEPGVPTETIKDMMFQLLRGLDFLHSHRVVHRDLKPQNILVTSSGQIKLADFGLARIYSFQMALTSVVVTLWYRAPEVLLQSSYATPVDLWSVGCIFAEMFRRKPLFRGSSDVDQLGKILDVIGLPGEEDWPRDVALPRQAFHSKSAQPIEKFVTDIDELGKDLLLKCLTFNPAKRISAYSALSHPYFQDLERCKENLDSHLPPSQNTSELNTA
Sequence of CDK6/CycD1 (P24385 whole entry partner, species assumed): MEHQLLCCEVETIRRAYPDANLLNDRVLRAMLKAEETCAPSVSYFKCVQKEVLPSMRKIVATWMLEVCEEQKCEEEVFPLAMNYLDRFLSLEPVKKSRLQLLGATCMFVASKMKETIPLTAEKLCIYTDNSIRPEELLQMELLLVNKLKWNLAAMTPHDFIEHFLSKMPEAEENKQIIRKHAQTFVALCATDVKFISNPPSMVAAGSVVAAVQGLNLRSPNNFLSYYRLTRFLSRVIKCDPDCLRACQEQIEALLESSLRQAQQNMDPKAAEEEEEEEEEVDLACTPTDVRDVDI
Description: as §6, §7, §8, §9, §10, §11

xMCF-7/Palbo-R cells = assay: xMCF-7/Palbo-R xenograft tumor model; type: in vivo; details: 20 mg/kg, oral tube feeding twice daily for 20 days, Balb/c nude female mice
Description: To establish a xenograft tumor model, 1×10^7 xMCF-7/Palbo-R cells were suspended in 0.2 mL of a mixture of Matrigel and […] (1:1) and injected subcutaneously into 6-8 week-old Balb/c nube female mice. Tumor growth was observed periodically, and the volume (volume=½×(length×width 2)) was measured with a vernier caliper. When the tumors grew to an average volume of 100˜150 mm3, the drug was administered to mice (12 days after inoculation) in random groups according to the tumor size and their body weights. […] The drugs were administered by oral tube feeding twice daily for 20 days. Tumor volume and animal weight were measured twice a week and continued until the end of the experiment. Dosing day was defined as day 0. Measurement time points were day 0, day 3, day 7, day 10, day 14, day 17 and day 20. All mice were euthanized by cervical dislocation. At the end of the experiment, tumors were collected and weighed to calculate TGI values (see Table 4).

IC50 (HCC1806 cells) | IC50 (MCF7 cells) | IC50 (OVCAR3 cells) | IC50 (T47D cells) | IC50 (MCF-7-Palbo-R cells; read-out: AbsIC50) | IC50 (MCF-7-Palbo-R cells; read-out: ReIC50) | IC50 (HCC1806 cells; Homo sapiens, HCC1806, 168 h) | IC50 (MCF7 cells; Homo sapiens, 168 h) | IC50 (OVCAR3 cells; Homo sapiens, OVCAR-3, 168 h) | IC50 (T47D cells; Homo sapiens, 168 h) | IC50 (CDK2/CycE1) | IC50 (CDK4/CycD3) | IC50 (CDK6/CycD1) | Compound | Bottom(%) (MCF-7-Palbo-R cells) | Top(%) (MCF-7-Palbo-R cells) | TGI (OVCAR-3 cells; 60 mg/kg, oral tube feeding once daily for 21 days) | TGI (MV4-11 cells) | TGI (OVCAR-3 cells; 30 mg/kg, oral tube feeding twice daily for 21 days) | TGI (OVCAR-3 cells; 50 mg/kg, oral tube feeding twice daily for 21 days) | TGI (xMCF-7/Palbo-R cells)
> 1000 nM | ≤ 50 nM | > 1000 nM | 50 to 5200 nM | 4010 nM | 7090 nM | – | – | – | – | – | – | – | Palbociclib [reference compound] | −3.542% | 68.840% | 27.7% | 39% | – | – | –
– | – | – | – | – | – | ≤ 50 nM | ≤ 50 nM | ≤ 50 nM | 50 to 5200 nM | < 10 nM | < 10 nM | < 10 nM | [2H]C1(Nc2ncc3cc(OC(F)F)c(=O)n([C@@H]4CCC[C@@]4(C)O)c3n2)CCN(S(C)(=O)=O)CC1 [Example 29] | – | – | – | – | 69% | 74.8% | –
– | – | – | – | 26 nM | 26 nM | ≤ 50 nM | 50 to 5200 nM | ≤ 50 nM | ≤ 50 nM | < 10 nM | < 10 nM | < 10 nM | C[C@@]1(O)CCC[C@H]1n1c(=O)c(OC(F)F)cc2cnc(NC3CCN(S(=O)(=O)c4ccc(F)cc4)CC3)nc21 [Example 12] | 7.117% | 99.196% | – | – | – | – | –
– | – | – | – | – | – | ≤ 50 nM | ≤ 50 nM | ≤ 50 nM | ≤ 50 nM | < 10 nM | < 10 nM | < 10 nM | C[C@@]1(O)CCC[C@H]1n1c(=O)c(OC(F)F)cc2cnc(NC3CCN(S(=O)(=O)c4ccccn4)CC3)nc21 [Example 27] | – | – | – | – | – | – | 61.5%
